Measured values reported in patent US20240335372A1, “Sustained-Release Vaginal Films” (priority 2021, published 2024).
Like-named read-outs stand apart in the source and are kept apart here. Each block holds one compound with its values, some of them ahead of it.

Assays:
[1] = Macaque (NHP) pharmacokinetic study after vaginal film administration: vaginal swabs, plasma, PBMCs
Description: In NHP film evaluations, both vaginal fluid and blood components (e.g. plasma) samples were collected for at least 31 days post-film administration to assess drug levels and evaluate vaginal release and systemic exposure. […] In study 2, MPT films with increased LNG dose (e.g., 3.5 mg vs. 1 mg) were evaluated. […] Study 3 utilized the same formulation developed for Study 2 by simply replacing LNG with ENG.
The developed MPT film was administered in six macaques.

[2] = EFdA-TP elimination half-life in macaques; format: in vivo; settings: macaques vs humans
[3] = macaques; cited from earlier work
[4] = humans; cited from earlier work
[5] = In vitro drug release of APIs from the extended-release polymer matrix film (Eudragit with PLGA); format: physicochemical; settings: FIG. 3; API in Eudragit/PLGA film
Description: An initial screening study was conducted to identify suitable polymers for this application.
Based on visual disintegration it was identified that only the combination of PLGA and Eudragit polymers was successful in extending the disintegration time (FIG. 2). […] This burst release could be attributed to the hydrophilic nature of the drug.

Structure (SMILES): C#C[C@]1(O)CC[C@H]2[C@@H]3CCC4=CC(=O)CC[C@@H]4[C@H]3C(=C)C[C@@]21CC [ENG, etonogestrel]
drug levels in vivo ([1]; in vivo): sustained drug levels

Structure (SMILES): C#C[C@]1(O)CC[C@H]2[C@@H]3CCC4=CC(=O)CC[C@@H]4[C@H]3CC[C@@]21CC [LNG, levonorgestrel]
animals above BLQ ([1]; female, macaque, in vivo): 0/3
animals with swab levels above BLQ ([1]; female, macaque, in vivo): 2/3
detectable levels present in the vaginal fluid until day ([1]; female, macaque, in vivo): 31 days
duration of release, vaginal swab and plasma levels ([1]; female, macaque, in vivo): 30 days
animals above BLQ ([1]; female, macaque, in vivo, 7 day): 1/3
plasma half-life compared with previously reported values after oral administration ([1]; in vivo): significantly higher

Structure (SMILES): CCN1C[C@H](C)n2c(c(O)c3c(=O)n(Cc4ccc(F)c(Cl)c4)nc(C(=O)NC)c32)C1=O [MK-2048]
drug release profile in the extended-release polymer matrix [5]: extended release

Structure (SMILES): CC(C)OC(=O)[C@H](C)N[P@](=O)(OC[C@H]1O[C@@H](n2ccc(=O)[nH]c2=O)[C@](C)(F)[C@@H]1O)Oc1ccccc1 [SBV, Sofosbuvir]
drug release profile in the extended-release polymer matrix [5]: burst release

Now from value to compound, other results behind:

detectable levels present in the vaginal fluid until day ([1]; female, macaque, in vivo): 31 days
detected in swabs until day ([1]; female, macaque, in vivo): 31 days
duration of release, vaginal swab and plasma levels ([1]; female, macaque, in vivo): 30 days
animals above BLQ ([1]; female, macaque, in vivo, 28 day): 2/3
animals above BLQ ([1]; female, macaque, in vivo, 31 day): 1/3
drug levels in vivo ([1]; in vivo): sustained drug levels
plasma half-life compared with previously reported values after oral administration ([1]; in vivo): significantly higher
Structure (SMILES): C#C[C@]1(CO)O[C@@H](n2cnc3c(N)nc(F)nc32)C[C@@H]1O [EFdA, 4′-Ethynyl-2-fluoro-2′-deoxyadenosine]

fold shorter elimination half-life in macaques than in humans [2]: 4-5 times
day until which PBMC levels were above the target (0.05 pmol/10^6 PBMCs) ([1]; MPT film LNG 16 mg, EFdA 14 mg, six macaques): ≥ 14 day
average concentration in PBMCs, remained detectable until day 31 ([1]; MPT film LNG 16 mg, EFdA 14 mg, six macaques, day 31): 0.018 pmol
Structure (SMILES): C#C[C@]1(COP(=O)(O)OP(=O)(O)OP(=O)(O)O)O[C@@H](n2cnc3c(N)nc(F)nc32)C[C@@H]1O [EFdA-TP]
elimination half-life [3]: ~40 h
elimination half-life [4]: 190 h

drug release profile in the extended-release polymer matrix [5]: burst release
Structure (SMILES): C=C1[C@H](CO)[C@@H](O)C[C@@H]1n1cnc2c(=O)[nH]c(N)nc21 [ETV, Entecavir]
